Measurements from patent US20230181524A1, “PHARMACEUTICAL COMBINATION AND USE THEREOF” (NATURAL MEDICINE INSTITUTE OF ZHEJIANG YANGSHENGTANG CO., …, priority 2020, published 2023).
Where two headings read alike, the source gives them in different places.

Experiments:
DB lymphoma cells = system: DB lymphoma cells
Method: (§1) (1) Cells were plated in a 10 cm culture plate to grow a density of about 90%. The medium was removed, and the adherent cells were washed once with a PBS buffer. 1 mL of trypsin was added, and immediately discarded after mixing well. The cells were placed in the incubator and digested for about 5 min, and then about 10 ml of fresh medium was added. 10 μL was taken for counting.
(§2) (2) 10 μL of the well-mixed cells were taken and mixed into 10 μL of Trypan Blue solution, and counted.
(§3) (3) After counting, the cells were diluted to 1×10^5 cells/ml. The diluted cells were mixed well, and plated into a 24-well plate with 500 μL per well, i.e., about 50,000 cells per well.
(§4) (4) The cells plated in the 24-well plate were cultured for about 24h, and then drugs were added. Various test groups comprise 5 groups as follows: the single-drug group of PKF118-310 (with a concentration of 0.1 μM), the group of ascorbic acid (with a concentration of 0.5 mM), the group of PKF118-310 (with a concentration of 0.1 μM) in combination with ascorbic acid (with a concentration of 0.5 mM); the control group that is a cell group to which only solvent DMSO is added; and the blank group that is a group to which no cell is added and only solvent (DMSO) is added.
(§5) (5) After 24h of dosing, the medium was discarded. About 150 μL of trypsin was added and then discarded. The cells were digested for 5 min;
(§6) (6) After digestion, equivalent amounts of PBS were added into each well and mixed uniformly. Then, 10 μL/well of Trypan Blue solution was added and mixed uniformly. 10 μL of the well-mixed solution was taken and counted. In accordance with “Cell viability=Cell Count of Test Group/Cell Count of Control Group×100%”, the cell viability of various groups was calculated.
For example, as for the DB lymphoma cells, the control group involves adding the solvent DMSO alone, the Vc group involves adding 2 mM of ascorbic acid, the low-dose PKF group involves adding 2 μM of PKF118-310, the low-dose PKF+Vc group involves adding 2 μM of PKF118-310 and 2 mM of ascorbic acid, the high-dose PKF group involves adding 5 μM of PKF118-310, and the high-dose PKF+the Vc group involves adding 5 μM of PKF118-310 and 2 mM of ascorbic acid.

[1] = system: HCT116 human colon cancer cells; assay: cells; settings: HCT116 cells
Method: as §1, §2, §3, §4, §5, §6
(§7) The inhibitory effect of PKF118-310 on the MC38 human colon cancer cells and the HCT116 human […] cancer cells was detected in accordance with the corresponding method of Example 1.

[2] = system: MC38 human colon cancer cells; assay: Cell viability, method of Example 1; settings: MC38 cells
Method: as §1, §2, §3, §4, §5, §6, §7

143B cells = assay: Osteosarcoma tumor model in nude mice (tumor volume, Luciferin fluorescence imaging); type: in vivo, nude mice (BALB/c-nu)
Method: (1) Tumor preparation in nude mice. 6-8-week-old female nude mice (BALB/c-nu) (purchased from Vital River Laboratory Animal Technology Co., Ltd.) were selected. 143B cells were cultured in vitro to the log phase. The cells were collected and re-suspended in a PBS buffer solution. The collected cells were subcutaneously injected to the mammary glands of nude mice with 5×10^6 143B cells/nude mouse to establish a model of tumor in situ.

[3] = system: 3AO human ovarian cancer cells; assay: cells; settings: 3AO cells
Method: as §1, §2, §3, §4, §5, §6
(§8) The inhibitory effect of PKF118-310 on the SKOV3 human ovarian cancer cells and the 3AO human ovarian cancer cells was detected in accordance with the corresponding method of Example 1.

[4] = system: SKOV3 human ovarian cancer cells; assay: cells; settings: SKOV3 cells
Method: as §1, §2, §3, §4, §5, §6, §8

[5] = system: HOS human osteosarcoma cells; assay: Migration of osteosarcoma cells (scratch lines, photographs at 12h and 24h); type: cell-based; settings: 0.1 μM PKF118-310 in combination with 0.5 mM Vc
Method: (§9) (1) HOS human osteosarcoma cells and 143B human osteosarcoma cells were subcultured at 37° C., 5% CO2 in an incubator with a RPMI-1640 medium containing 10% fetal bovine serum.
(§10) 10 μL was taken for counting.
(§11) The diluted cells were plated into a 12-well plate with 1 mL per well, i.e., about 100,000 cells per well.
(§12) (4) The cells plated in the 12-well plate were cultured to a density of more than 80%. Then, a control group (to which DMSO was added), as well as groups to which 0.1 μM of PKF118-310, 0.5 mM Vc, and a combination of 0.1 μM of PKF118-310 with 0.5 mM sodium ascorbate were respectively added were prepared. Parallel lines were drawn with the tip of a 10 μL pipette at the bottom of the plate.
(§13) (5) The cells were placed into a 37° C., 5% CO2 incubator for incubation, and observed and recorded by photographs at 12h and 24h.

[6] = system: 143B human osteosarcoma cells; assay: as above; type: cell-based; settings: 143B cells, 0.1 μM PKF118-310 in combination with 0.5 mM Vc
Method: as §9, §10, §11, §12, §13

T cells = assay: Cell viability of immune cells by cell count; type: cell-based; settings: 0.1 μM PKF118-310 in combination with 0.5 mM ascorbic acid, 24h
Method: (§14) Immune cells comprise T cells and Macrophages, wherein the T cells are cultured with a 1640 medium, and the macrophages are cultured with a DMEM medium. The particular procedures are follows:
as §10
(§15) (5) After 24h of dosing, the medium was discarded. […] The cells were digested for 5 min;

macrophages = assay: Cell viability of immune cells by cell count; type: cell-based; settings: 0.1 μM PKF118-310 in combination with 0.5 mM ascorbic acid, 24h
Method: as §14, §10, §15

[7] = 0.3 μM in combination with 0.5 mM sodium ascorbate
[8] = 0.1 μM in combination with 0.5 mM sodium ascorbate
[9] = 0.5 μM in combination with 0.5 mM sodium ascorbate

Work on Cn1ncnc2c(=O)n(C)c(=O)nc1-2 [PKF118-310] yielded a cell viability (DB lymphoma cells; 2 μM and 2 mM ascorbic acid) of 12%, a cell viability (DB lymphoma cells; 5 μM and 2 mM ascorbic acid) of 11% and a CDI value (DB lymphoma cells; high-dose (5 μM) with 2 mM ascorbic acid) of 0.18. It also gave a CDI value (DB lymphoma cells; low-dose (2 μM) with 2 mM ascorbic acid) of 0.17, a cell viability (DB lymphoma cells; single drug 2 μM (low-dose)) of 72% and a cell viability (DB lymphoma cells; single drug 5 μM (high-dose)) of 67%. It also gave a CDI value [1, 7] of 0.24, a cell viability [1, 7] of 22% and a cell viability ([1]; single-drug 0.3 μM) of 92%. The “effect on the body weight of mice” value (PKF118-310 0.7 mg/kg s.c. in combination with ascorbate 1 g/kg i.v. every 3 days) was “no effect on the body weight of mice”, the “effect on the body weight of mice” value (alone, PKF118-310 0.7 mg/kg s.c. or ascorbate 1 g/kg i.v. every 3 days) was “no effect on the body weight of mice” and the CDI value [2, 7] was 0.15. For the same compound, the cell viability [2, 7] was 11%, the cell viability ([2]; single-drug 0.3 μM) was 88% and the “tumor growth, tumor volume with time” value (143B cells; 0.7 mg/kg PKF118-310 s.c. + 1 g/kg ascorbic acid i.v. every 3 days, 6 times, vs blank control and single-drug groups (P<0.001)) was “significantly inhibits the tumor growth”. For the same compound, the “tumor volume on Day 21” value (143B cells; 0.7 mg/kg PKF118-310 s.c. + 1 g/kg ascorbic acid i.v., compared with blank control, PKF118-310 and sodium ascorbate groups) was “substantially smaller”, the “tumor growth, Luciferin fluorescence imaging” value (143B cells; Day 21, 0.7 mg/kg PKF118-310 s.c. + 1 g/kg ascorbic acid i.v. every 3 days, 6 times, vs blank control and single-drug groups) was “significantly inhibits the tumor growth” and the CDI value [3, 8] was 0.35. For the same compound, the cell viability [3, 8] was 31%, the CDI value [3, 7] was 0.19 and the cell viability [3, 7] was 13%. For the same compound, the cell viability ([3]; 0.05 M in combination with 0.5 mM sodium ascorbate) was 58%, the CDI value ([3]; in combination with 0.5 mM sodium ascorbate) was 0.60 and the cell viability ([3]; single-drug 0.1 μM) was 92%. The cell viability ([3]; single-drug 0.3 μM) was 69%, the cell viability ([3]; single-drug 0.05 M) was 101% and the CDI value [4, 7] was 0.31. For the same compound, the cell viability [4, 7] was 28%, the CDI value [4, 9] was 0.34 and the cell viability [4, 9] was 20%. The cell viability ([4]; single-drug 0.3 μM) was 94%, the cell viability ([4]; single-drug 0.5 μM) was 61% and the migration of cells [5] was “significantly inhibit the migration”. The migration of cells [6] was “significantly inhibit the migration”, the “effect on immune cells (cell viability)” value (T cells) was “does not have effect on the immune cells” and the “effect on immune cells (cell viability)” value (macrophages) was “does not have effect on the immune cells”.
